Results from ChEMBL document CHEMBL3588812, “Thiophene and benzodioxole appended thiazolyl-pyrazoline compounds: Microwave assisted synthesis, antimicrobial and molecular docking studies” (2015).
Activity calls are given as the source filed them. The rule behind the calls is not given here.

Tests used:
Klebsiella pneumoniae = experiment: Antimicrobial activity against Klebsiella pneumoniae MTCC 109 assessed as inhibition of visual microbial growth incubated for 24 hrs at 37 degC; type: functional; details: MTCC 109, 24 h
Salmonella typhimurium = experiment: Antimicrobial activity against Salmonella typhimurium MTCC 1251 assessed as inhibition of visual microbial growth incubated for 24 hrs at 37 degC; type: functional, Salmonella enterica subsp. enterica serovar Typhimurium; details: Salmonella enterica, MTCC 1251, 24 h
Shigella flexneri = experiment: Antimicrobial activity against Shigella flexneri MTCC 1457 assessed as inhibition of visual microbial growth incubated for 24 hrs at 37 degC; type: functional
Proteus vulgaris = experiment: Antimicrobial activity against Proteus vulgaris MTCC 1771 assessed as inhibition of visual microbial growth incubated for 24 hrs at 37 degC; type: functional
Staphylococcus aureus [1] = experiment: Antimicrobial activity against Staphylococcus aureus MTCC 96 assessed as inhibition of visual microbial growth incubated for 24 hrs at 37 degC; type: functional; details: MTCC 96, 24 h
Staphylococcus aureus [2] = experiment: Antimicrobial activity against methicillin-resistant Staphylococcus aureus assessed as inhibition of visual microbial growth incubated for 24 hrs at 37 degC; type: functional
Malassezia pachydermatis = experiment: Antimicrobial activity against Malassezia pachydermatis assessed as inhibition of visual microbial growth incubated for 48 to 72 hrs at 28 degC; type: functional
Candida albicans = experiment: Antimicrobial activity against Candida albicans MTCC 227 assessed as inhibition of visual microbial growth incubated for 48 to 72 hrs at 28 degC; type: functional
Micrococcus luteus = experiment: Antimicrobial activity against Micrococcus luteus MTCC 106 assessed as inhibition of visual microbial growth incubated for 24 hrs at 37 degC; type: functional; details: MTCC 106, 24 h
Klebsiella aerogenes = experiment: Antimicrobial activity against Enterobacter aerogenes MTCC 111 assessed as inhibition of visual microbial growth incubated for 24 hrs at 37 degC; type: functional

Row | Compound | MIC (Klebsiella pneumoniae) [µg/mL] | MIC (Salmonella typhimurium) [µg/mL] | MIC (Shigella flexneri; MTCC 1457, 24 h) [µg/mL] | MIC (Proteus vulgaris; MTCC 1771, 24 h) [µg/mL] | MIC (Staphylococcus aureus [1]) [µg/mL] | MIC (Staphylococcus aureus [2]) | MIC (Malassezia pachydermatis) [µg/mL] | MIC (Candida albicans) [µg/mL] | MIC (Micrococcus luteus) [µg/mL] | MIC (Klebsiella aerogenes; MTCC 111, 24 h) [µg/mL] | MIC (Klebsiella aerogenes) | MIC (Shigella flexneri) | MIC (Proteus vulgaris)
1 | Clc1ccc(-c2csc(N3N=C(c4cccs4)CC3c3ccc4c(c3)OCO4)n2)cc1 (stereo not given) | 62.5 | 250 | 250 | 125 | 125 | 250 µg/mL | 500 | 500 | 250 | 250 |  |  | 
2 | CN[C@@H]1[C@H](O[C@H]2[C@H](O[C@H]3[C@H](O)[C@@H](O)[C@H](N=C(N)N)[C@@H](O)[C@@H]3N=C(N)N)O[C@@H](C)[C@]2(O)C=O)O[C@@H](CO)[C@H](O)[C@H]1O [STREPTOMYCIN] | 6.25 | 30 | 6.25 |  | 6.25 | 6.25 µg/mL |  |  | 6.25 | 25 |  |  | 
3 | Cc1ccc(-c2csc(N3N=C(c4cccs4)CC3c3ccc4c(c3)OCO4)n2)cc1 (stereo not given) | 125 | 125 | 250 | 500 | 250 | 250 µg/mL | 500 | 125 | 500 |  | inactive |  | 
4 | N#Cc1ccc(-c2csc(N3N=C(c4cccs4)CC3c3ccc4c(c3)OCO4)n2)cc1 (stereo not given) | 250 | 125 | 250 | 125 | 125 | 250 µg/mL | 500 | 125 | 125 | 250 |  |  | 
5 | OC(Cn1cncn1)(Cn1cncn1)c1ccc(F)cc1F [FLUCONAZOLE] |  |  |  |  |  |  | 24 |  |  |  |  |  | 
6 | Fc1cc(Cl)ccc1-c1csc(N2N=C(c3cccs3)CC2c2cc3c(cc2Br)OCO3)n1 (stereo not given) | 62.5 | 31.2 | 62.5 | 62.5 | 125 | 62.5 µg/mL | 125 | 62.5 | 125 | 125 |  |  | 
7 | Fc1cc(-c2csc(N3N=C(c4cccs4)CC3c3ccc4c(c3)OCO4)n2)ccc1Cl (stereo not given) | 250 | 500 | 125 | 500 | 500 | 250 µg/mL | 500 | 125 | 62.5 | 125 |  |  | 
8 | Fc1cc(Cl)ccc1-c1csc(N2N=C(c3cccs3)CC2c2ccc3c(c2)OCO3)n1 (stereo not given) | 125 | 125 | 125 | 500 | 250 | 125 µg/mL | 250 | 250 | 250 | 250 |  |  | 
9 | Fc1ccccc1-c1csc(N2N=C(c3cccs3)CC2c2cc3c(cc2Br)OCO3)n1 (stereo not given) | 250 | 125 | 250 | 500 | 250 | 250 µg/mL | 500 | 125 | 125 | 250 |  |  | 
10 | Fc1cc(-c2csc(N3N=C(c4cccs4)CC3c3cc4c(cc3Br)OCO4)n2)ccc1Cl (stereo not given) | 125 | 125 | 125 | 125 | 125 | 250 µg/mL | 500 | 500 | 125 | 250 |  |  | 
11 | Fc1ccccc1-c1csc(N2N=C(c3cccs3)CC2c2ccc3c(c2)OCO3)n1 (stereo not given) | 500 | 250 |  | 500 | 250 | 250 µg/mL | 500 | 500 | 125 | 500 |  | inactive | 
12 | c1ccc(-c2csc(N3N=C(c4cccs4)CC3c3ccc4c(c3)OCO4)n2)cc1 (stereo not given) | 500 | 250 | 500 | 500 | 500 | 500 µg/mL | 500 | 250 | 250 | 250 |  |  | 
13 | CC(=O)N1CCN(c2ccc(OCC3COC(Cn4ccnc4)(c4ccc(Cl)cc4Cl)O3)cc2)CC1 (stereo not given) [KETOCONAZOLE] |  |  |  |  |  |  |  | 25 |  |  |  |  | 
14 | Fc1ccc(-c2csc(N3N=C(c4cccs4)CC3c3cc4c(cc3Br)OCO4)n2)cc1 (stereo not given) | 500 | 250 | 250 |  | 250 | inactive | 500 | 250 | 125 | 250 |  |  | inactive
15 | Fc1ccc(-c2csc(N3N=C(c4cccs4)CC3c3ccc4c(c3)OCO4)n2)cc1 (stereo not given) | 250 | 500 | 250 | 500 | 500 | 250 µg/mL | 250 | 125 | 250 | 125 |  |  | 
16 | N#Cc1ccc(-c2csc(N3N=C(c4cccs4)CC3c3cc4c(cc3Br)OCO4)n2)cc1 (stereo not given) | 125 | 125 | 125 | 62.5 | 62.5 | 125 µg/mL | 125 | 125 | 62.5 | 125 |  |  | 
17 | Cc1ccc(-c2csc(N3N=C(c4cccs4)CC3c3cc4c(cc3Br)OCO4)n2)cc1 (stereo not given) | 62.5 | 62.5 | 125 | 125 | 62.5 | 250 µg/mL | 250 | 125 | 62.5 | 125 |  |  | 
18 | O=[N+]([O-])c1ccc(-c2csc(N3N=C(c4cccs4)CC3c3cc4c(cc3Br)OCO4)n2)cc1 (stereo not given) | 250 | 62.5 | 250 | 125 | 250 | 62.5 µg/mL | 500 | 125 | 125 | 250 |  |  | 
19 | N#Cc1cccc(-c2csc(N3N=C(c4cccs4)CC3c3cc4c(cc3Br)OCO4)n2)c1 (stereo not given) | 62.5 | 31.2 | 62.5 | 31.2 | 31.2 | 62.5 µg/mL | 125 | 62.5 | 31.2 | 62.5 |  |  | 
20 | GENTAMICIN |  |  |  |  |  |  |  |  |  |  |  |  | 32 µg/mL
21 | Clc1ccc(-c2csc(N3N=C(c4cccs4)CC3c3cc4c(cc3Br)OCO4)n2)cc1 (stereo not given) | 31.2 | 62.5 | 125 | 250 | 125 | 62.5 µg/mL | 125 | 125 | 31.2 | 125 |  |  | 
22 | Brc1cc2c(cc1C1CC(c3cccs3)=NN1c1nc(-c3ccccc3)cs1)OCO2 (stereo not given) | 250 | 125 | 250 | 62.5 | 125 | 250 µg/mL | 125 | 125 | 125 | 62.5 |  |  | 
23 | O=[N+]([O-])c1ccc(-c2csc(N3N=C(c4cccs4)CC3c3ccc4c(c3)OCO4)n2)cc1 (stereo not given) | 500 | 500 | 500 |  | 500 | inactive | 500 | 250 | 250 | 500 |  |  | inactive
24 | N#Cc1cccc(-c2csc(N3N=C(c4cccs4)CC3c3ccc4c(c3)OCO4)n2)c1 (stereo not given) | 62.5 | 62.5 | 125 | 250 | 31.2 | 62.5 µg/mL | 250 | 125 | 31.2 | 125 |  |  | 
